Assay results taken from patent US9458202B2, “Peptidomimetic macrocycles with improved properties” (Aileron Therapeutics, Inc., priority 2008, dated 2016).
Where a SMILES comes first, the peptide text is derived from it. Bridges are numbered along the chain shown (N, C = ends). [ ]: non-standard residue; d: D form. S5 = C=CCCC[C@](C)(N)C(=O)O; Nle = CCCC[C@H](N)C(=O)O

Experiments:
[1] = Figure 2; design: AUCall: concentration or dose not given beside the values; conditions: for C0 / half-life / MRT: Sprague-Dawley, rat, plasma, iv; for MRT: read-out: MRTinf_obs
Procedure: Table printed on a drawing sheet, Figure 2
Footnotes: 2 mg/mL iv bolus in Sprague-Dawley rats (10 mg/kg) / * 0.6 mg/mL iv bolus in Sprague-Dawley rats (3 mg/kg)
The patent's description of the figure: FIG. 2 lists the in vivo half-lives of peptidomimetic macrocycles of the invention. Half-lives were measured in Sprague Dawley rats after one intravenous bolus injection at 0.6 mg/mL or 2 mg/mL of each unlabeled peptidomimetic macrocycle at a 3 mg/kg or 10 mg/kg dose, respectively. Three animals were used per compound and concentrations were determined by mass-spectrometric analysis of blood levels (plasma).
First reader's note: An asterisk before the peptide name marks dosing at 3 mg/kg (0.6 mg/mL) instead of 10 mg/kg (2 mg/mL).

[2] = circular dichroism; design: unit not given here; conditions: 20 mM phosphoric acid; pH 2.0; 5 °C; 0.05 mg/mL

## CCCC[C@H](NC(=O)[C@H](CO)NC(=O)[C@H](CC(=O)O)NC(=O)CNC(=O)[C@@H](NC(=O)[C@H](CCC(N)=O)NC(=O)[C@H](C)NC(=O)[C@H](CC(C)C)NC(=O)[C@H](Cc1c[nH]cn1)NC(=O)[C@H](CCCNC(=N)N)NC(=O)[C@H](C)NC(=O)[C@@H](NC(=O)[C@H](CC(N)=O)NC(=O)[C@H](CCCNC(=N)N)NC(=O)[C@@H](NC(=O)[C@@H](NC(=O)[C@H](CC(=O)O)NC(C)=O)[C@@H](C)CC)[C@@H](C)CC)[C@@H](C)CC)C(C)C)C(=O)N[C@@H](CC(=O)O)C(=O)N[C@@H](CCCNC(=N)N)C(=O)N[C@@H](CO)C(=O)N[C@H](C(N)=O)[C@@H](C)CC [*SP11] (Ac-DIIRNIARHLAQVGDS[Nle]DRSI-NH2)
[1]
  AUCall: 1136 ng·h/mL
  Cl_obs: 45.53 mL/min/kg
  C0: 1080 ng/mL
  half-life: 1.3 h
  MRT: 1.6 h
[2]
  helicity: -1890

## CCCC[C@H](NC(=O)[C@]1(C)CCCC=CCCCC2(CCCC=CCCC[C@@](C)(NC(=O)[C@H](C)NC(=O)[C@@H](NC(=O)[C@H](CC(N)=O)NC(=O)[C@H](CCCNC(=N)N)NC(=O)[C@@H](NC(=O)[C@@H](NC(=O)[C@H](CC(=O)O)NC(C)=O)[C@@H](C)CC)[C@@H](C)CC)[C@@H](C)CC)C(=O)N[C@@H](Cc3c[nH]cn3)C(=O)N[C@@H](CC(C)C)C(=O)N[C@@H](C)C(=O)N2)C(=O)N[C@@H](C(C)C)C(=O)NCC(=O)N[C@@H](CC(=O)O)C(=O)N1)C(=O)N[C@@H](CC(=O)O)C(=O)N[C@@H](CCCNC(=N)N)C(=O)N[C@@H](CO)C(=O)N[C@H](C(N)=O)[C@@H](C)CC (stereo partly shown) [*SP13]
[1]
  AUCall: 82965 ng·h/mL
  Cl_obs: 0.44 mL/min/kg
  C0: 6100 ng/mL
  half-life: 9.5 h
  MRT: 13.2 h
[2]
  helicity: -5450

## CCCC[C@H](NC(=O)[C@@]1(C)CCCC=CCCCC2(CCCC=CCCC[C@](C)(NC(=O)[C@H](C)NC(=O)[C@@H](NC(=O)[C@H](CC(N)=O)NC(=O)[C@H](CCCNC(=N)N)NC(=O)[C@@H](NC(=O)[C@@H](NC(=O)[C@H](CC(=O)O)NC(C)=O)[C@@H](C)CC)[C@@H](C)CC)[C@@H](C)CC)C(=O)N[C@@H](Cc3c[nH]cn3)C(=O)N[C@@H](CC(C)C)C(=O)N[C@@H](C)C(=O)N2)C(=O)N[C@@H](C(C)C)C(=O)NCC(=O)N[C@@H](CC(=O)O)C(=O)N1)C(=O)N[C@@H](CC(=O)O)C(=O)N[C@@H](CCCNC(=N)N)C(=O)N[C@@H](CO)C(=O)N[C@H](C(N)=O)[C@@H](C)CC (stereo partly shown) [*SP14]
[1]
  AUCall: 74344 ng·h/mL
  Cl_obs: 0.727 mL/min/kg
  C0: 7200 ng/mL
  half-life: 6.7 h
  MRT: 8.7 h
[2]
  helicity: -5840

## CC[C@H](C)[C@H](NC(C)=O)C(=O)N[C@@H](Cc1c[nH]c2ccccc12)C(=O)N[C@H](C(=O)N[C@@H](C)C(=O)N[C@@H](CCC(N)=O)C(=O)N[C@@H](C)C(=O)N[C@@H](CC(C)C)C(=O)N[C@@H](CCCNC(=N)N)C(=O)N[C@@H](CCCNC(=N)N)C(=O)N[C@H](C(=O)NCC(=O)N[C@@H](CC(=O)O)C(=O)N[C@@H](CCC(=O)O)C(=O)N[C@@H](Cc1ccccc1)C(=O)N[C@@H](CC(N)=O)C(=O)N[C@@H](C)C(=O)N[C@@H](Cc1ccc(O)cc1)C(=O)N[C@@H](Cc1ccc(O)cc1)C(=O)N[C@@H](C)C(=O)N[C@@H](CCCNC(=N)N)C(=O)N[C@@H](CCCNC(=N)N)C(N)=O)[C@@H](C)CC)[C@@H](C)CC [*SP15]
[1]
  AUCall: 8430 ng·h/mL
  Cl_obs: 7.467 mL/min/kg
  C0: 48000 ng/mL
  half-life: 0.4 h
  MRT: 0.2 h
[2]
  helicity: -2000

## CC[C@H](C)[C@H](NC(C)=O)C(=O)N[C@@]1(C)CCCC=CCCC[C@@](C)(C(=O)N[C@@H](CC(C)C)C(=O)N[C@@H](CCCNC(=N)N)C(=O)N[C@@]2(C)CCCC=CCCC[C@@](C)(C(=O)N[C@@H](Cc3ccccc3)C(=O)N[C@@H](CC(N)=O)C(=O)N[C@@H](C)C(=O)N[C@@H](Cc3ccc(O)cc3)C(=O)N[C@@H](Cc3ccc(O)cc3)C(=O)N[C@@H](C)C(=O)N[C@@H](CCCNC(=N)N)C(=O)N[C@@H](CCCNC(=N)N)C(N)=O)NC(=O)[C@H](CC(=O)O)NC(=O)CNC(=O)[C@H]([C@@H](C)CC)NC2=O)NC(=O)[C@H](CCC(N)=O)NC(=O)[C@H](C)NC(=O)[C@H]([C@@H](C)CC)NC1=O [*SP16]
[1]
  AUCall: 125889 ng·h/mL
  Cl_obs: 0.4 mL/min/kg
  C0: 22900 ng/mL
  half-life: 4.5 h
  MRT: 4.4 h
[2]
  helicity: -14400

## CC(=O)N[C@@H](CCC(N)=O)C(=O)N[C@@H](CO)C(=O)N[C@@]1(C)CCCC=CCCCC2(CCCC=CCCCCCC[C@@](C)(C(=O)N[C@@H](CCC(N)=O)C(=O)N[C@@H](CC(N)=O)C(N)=O)NC(=O)[C@H](CC(C)C)NC(=O)[C@H](CC(C)C)NC(=O)[C@H](CCCNC(=N)N)NC(=O)[C@H](Cc3c[nH]c4ccccc34)NC(=O)[C@H](CC(C)C)NC(=O)[C@H](CC(N)=O)NC2=O)NC(=O)[C@H](Cc2ccccc2)NC(=O)[C@H]([C@@H](C)O)NC(=O)[C@H](CCC(N)=O)NC1=O (stereo partly shown) [*SP17]
[1]
  AUCall: 102958 ng·h/mL
  Cl_obs: 0.995 mL/min/kg
  C0: 72800 ng/mL
  half-life: 3.3 h
  MRT: 3 h
[2]
  helicity: -12300

## CC[C@H](C)[C@H](NC(C)=O)C(=O)N[C@@H](Cc1c[nH]c2ccccc12)C(=O)N[C@H](C(=O)N[C@@H](C)C(=O)N[C@]1(C)CCCC=CCCCC2(CCCC=CCCC[C@@](C)(C(=O)N[C@@H](Cc3ccccc3)C(=O)N[C@@H](CC(N)=O)C(=O)N[C@@H](C)C(=O)N[C@@H](Cc3ccc(O)cc3)C(=O)N[C@@H](Cc3ccc(O)cc3)C(=O)N[C@@H](C)C(=O)N[C@@H](CCCNC(=N)N)C(=O)N[C@@H](CCCNC(=N)N)C(N)=O)NC(=O)[C@H](CC(=O)O)NC(=O)CNC(=O)[C@H]([C@@H](C)CC)NC2=O)NC(=O)[C@H](CCCNC(=N)N)NC(=O)[C@H](CC(C)C)NC(=O)[C@H](C)NC1=O)[C@@H](C)CC (stereo partly shown) [*SP20]
[1]
  AUCall: 15000 ng·h/mL
  Cl_obs: 3.017 mL/min/kg
  C0: 1950 ng/mL
  half-life: 10.8 h
  MRT: 14.1 h
[2]
  helicity: -19200

## CC[C@H](C)[C@H](NC(C)=O)C(=O)N[C@@H](Cc1c[nH]c2ccccc12)C(=O)N[C@H](C(=O)N[C@@H](C)C(=O)N[C@@]1(C)CCCC=CCCCC2(CCCC=CCCCCCC[C@@](C)(C(=O)N[C@@H](Cc3ccc(O)cc3)C(=O)N[C@@H](Cc3ccc(O)cc3)C(=O)N[C@@H](C)C(=O)N[C@@H](CCCNC(=N)N)C(=O)N[C@@H](CCCNC(=N)N)C(N)=O)NC(=O)[C@H](CC(N)=O)NC(=O)[C@H](Cc3ccccc3)NC(=O)[C@H](CCC(=O)O)NC(=O)[C@H](CC(=O)O)NC(=O)CNC(=O)[C@H]([C@@H](C)CC)NC2=O)NC(=O)[C@H](CCCNC(=N)N)NC(=O)[C@H](CC(C)C)NC(=O)[C@H](C)NC1=O)[C@@H](C)CC (stereo partly shown) [*SP21]
[1]
  AUCall: 7000 ng·h/mL
  Cl_obs: 6.977 mL/min/kg
  C0: 1450 ng/mL
  half-life: 5.7 h
  MRT: 6.6 h
[2]
  helicity: -11200

## CCCC[C@H](NC(=O)[C@]1(C)CCCC=CCCC[C@](C)(NC(=O)[C@H](C)NC(=O)[C@H](CC(C)C)NC(=O)[C@H](Cc2c[nH]cn2)NC(=O)[C@H](CCCNC(=N)N)NC(=O)[C@H](C)NC(=O)[C@@H](NC(=O)[C@H](CC(N)=O)NC(=O)[C@H](CCCNC(=N)N)NC(=O)[C@@H](NC(=O)[C@@H](NC(=O)[C@H](CC(=O)O)NC(C)=O)[C@@H](C)CC)[C@@H](C)CC)[C@@H](C)CC)C(=O)N[C@@H](C(C)C)C(=O)NCC(=O)N[C@@H](CC(=O)O)C(=O)N1)C(=O)N[C@@H](CC(=O)O)C(=O)N[C@@H](CCCNC(=N)N)C(=O)N[C@@H](CO)C(=O)N[C@H](C(N)=O)[C@@H](C)CC [SP1] (Ac-DIIRNIARHLA[S5]VGD[S5][Nle]DRSI-NH2; staple 12-16)
[1]
  AUCall: 268275 ng·h/mL
  Cl_obs: 0.737 mL/min/kg
  C0: 154000 ng/mL
[2]
  helicity: -8150

## CC[C@H](C)[C@H](NC(C)=O)C(=O)N[C@@H](Cc1c[nH]c2ccccc12)C(=O)N[C@H](C(=O)N[C@@H](C)C(=O)N[C@@H](CCC(N)=O)C(=O)N[C@@H](C)C(=O)N[C@@H](CC(C)C)C(=O)N[C@@H](CCCNC(=N)N)C(=O)N[C@@]1(C)CCCC=CCCC[C@@](C)(C(=O)N[C@@H](Cc2ccccc2)C(=O)N[C@@H](CC(N)=O)C(=O)N[C@@H](C)C(=O)N[C@@H](Cc2ccc(O)cc2)C(=O)N[C@@H](Cc2ccc(O)cc2)C(=O)N[C@@H](C)C(=O)N[C@@H](CCCNC(=N)N)C(=O)N[C@@H](CCCNC(=N)N)C(N)=O)NC(=O)[C@H](CC(=O)O)NC(=O)CNC(=O)[C@H]([C@@H](C)CC)NC1=O)[C@@H](C)CC [SP9]
[1]
  AUCall: 124448 ng·h/mL
  Cl_obs: 0.83 mL/min/kg
  C0: 159000 ng/mL
  half-life: 7.3 h
  MRT: 4.5 h
[2]
  helicity: -14900

## Ac-QSQQTFSNLWRLLPQN-NH2 [*SP22]
[1]
  AUCall: 75 ng·h/mL
  Cl_obs: 700 mL/min/kg
  C0: 15100 ng/mL
  half-life: < 0.1 h
  MRT: < 0.1 h
[2]
  helicity: -646
